Patent publication US20220265619A1, “COMBINATION TREATMENT OF LIVER DISEASES USING FXR AGONISTS” (Novartis AG, priority 2019, published 2022)
“Also recorded” adds a separate entry of the source. Each block holds one compound with its values, some of them ahead of it.

Key:
[1] = FLIGHT-FXR (NCT02855164) Part C interim analysis, tropifexor in fibrotic NASH; type: in vivo, human; settings: for ALT, LS mean absolute change (SE) from baseline to Week 12: placebo −8.9 (4.19); for GGT, LS mean absolute change (SE) from baseline to Week 12: placebo −2.5 (3.55); for Body weight, LS mean absolute change (SE) from baseline to Week 12: placebo −1.14 (0.36)
[2] = Drug-drug interaction study of tropifexor and licogliflozin in healthy but overweight to obese subjects; type: in vivo, human
Procedure: Sixteen subjects with a BMI of 25 to 35 kg/m2 were enrolled. […] Standard safety assessments were performed, with adverse event monitoring. Steady state PK parameters from Period 1 or 2 (single agent PK) were compared with that from Period 3 (combination PK) to assess the effect of potential drug interaction.

[3] = Tropifexor in NASH patients, Parts A and B of study CLJN452A2202
[4] = system: human hepatocytes; assay: LDL uptake by in vitro human hepatocytes treated with FXR agonists; type: cell-based
Excerpt: To mitigate the increase in peripheric LDL, we hypothesize that treating the subjects in the evening (from about 6 pm to about […], e.g. from about 8 pm to about 11 pm, preferably around 9 pm) would be reduce the impact of the drug on LDL. […] In addition, during night time, the hepatocytes rely less on cholesterol coming from the food intake (LDL and others) since the body is then fasting but more on the intrahepatic production of cholesterol via HMGCOa reductase; the activity of this enzyme is the highest during the night. Indeed, in human, whilst the Cyp7A1 activity peak at 1 and 9 pm, intracellular cholesterol levels in hepatocytes are the highest during the night (between midnight and 4 AM).

[5] = NASH patients; cited from earlier work
[6] = Licogliflozin 2 week study in healthy subjects and patients with T2DM; type: in vivo, human
Procedure: (§1) i.e., (2S,3R,4R,5S,6R)-2-(3-((2,3-dihydrobenzo[b][1,4]dioxin-6-yl)methyl)-4-ethylphenyl)-6-(hydroxymethyl)tetrahydro-2H-pyran-3,4,5-triol. […] Licogliflozin at 150 mg daily dose results in a significant weight loss in obese patients (˜6%) after 12 week treatment.

[7] = Licogliflozin 150 mg daily, 12 week treatment in obese patients / normoglycemic and dysglycemic subjects; type: in vivo, human
Procedure: as §1

[8] = Phase 2 dose range finding study of licogliflozin in obese patients (CLIK066B2201); type: in vivo, human; settings: obese patients (placebo 19.2%)
Procedure: A dose of 30 mg QD is expected to achieve approximately 70% of maximum observed efficacy (using weight loss as a downstream marker for efficacy; CLIK066B2201). Licogliflozin is currently being tested as 30 mg and 150 mg QD monotherapy in NASH (CLIK066X2204). […] To minimize the risk of GI adverse effects of the SGLT1 inhibition in the gut such as diarrhea, licogliflozin will be administered in the evening.

[9] = Placebo-controlled, randomized Phase 2a study of licogliflozin in NASH patients, interim analysis (NCT03205150, CLIK066X2204); type: in vivo, human; settings: for patients achieving at least 5% absolute reduction in liver fat: 12 weeks (placebo 18.8%); for proportion of patients with at least a 30% relative reduction in liver fat content: 12 weeks (placebo 25%); for patients reporting diarrhea (adverse event): 12 weeks (placebo 38.9%)
Procedure: METHOD: Patients with histologically confirmed NASH (F1-F3) or phenotypic NASH (BMI≥27 kg/m^2 in non-Asians or 23 kg/m^2 in Asians, ALT≥50 (males) or 35 (females) and type 2 diabetes (T2DM)) received daily oral licogliflozin at 150 mg, 30 mg or placebo in a 2:2:1 ratio for 12 weeks (NCT03205150). The primary endpoint is the effect on ALT level after 12 weeks of treatment. Secondary endpoints include improvement in body weight, liver fat content and AST, amongst others. The study size is 110 of which 77 have completed (placebo (n=18); licogliflozin 30 mg (n=25) and licogliflozin 150 mg (n=34)) and are included in the interim analysis.

[10] = Dose finding study of licogliflozin in Japanese patients with obesity disease; type: in vivo, human; settings: for placebo-subtracted percentage change in body weight from baseline at Week 12: Japanese patients with obesity disease
Procedure: This study was a randomized, double-blind, placebo controlled, dose finding study to evaluate the effect of licogliflozin (2.5, 10, 25 and 50 mg qd) in 126 Japanese patients with obesity disease. The primary objective was to examine the dose-response relationship of licogliflozin treatment in body weight reduction relative to placebo at 12 weeks. The secondary objectives included assessment of responder rates, change in parameters related to complications, visceral and subcutaneous fat area, and safety through 12 weeks of treatment.

[11] = 200 μg once daily, n = 46, P < 0.001
[12] = tropifexor 140 μg in the presence of licogliflozin 50 mg vs alone
[13] = 10 to 90 μg daily for 12 weeks, NASH patients
[14] = all doses (10, 30, 60 and 90 μg), 12 weeks
[15] = licogliflozin 50 mg in the presence of tropifexor 140 μg vs alone

SMILES: O=C(O)c1cc(F)c2nc(N3C4CC[C@H]3CC(OCc3c(-c5ccccc5OC(F)(F)F)noc3C3CC3)C4)sc2c1 (stereo partly drawn) [tropifexor, 2-[(1R,3r,5S)-3-({5-cyclopropyl-3-[2-(trifluoromethoxy)phenyl]-1,2-oxazol-4-yl}methoxy)-8-azabicyclo[3.2.1]octan-8-yl]-4-fluoro-1,3-benzothiazole-6-carboxylic acid]
low density lipoprotein-cholesterol (LDL-C) ([1]; 140 μg and 200 μg): dose-related increase
frequency of serious adverse events ([1]; 140 μg and 200 μg vs placebo): low and comparable across groups
ALT, LS mean absolute change (SE) from baseline to Week 12 ([1]; 140 μg once daily, n = 41, P = 0.058): −20.1 (4.57) U/L
GGT, LS mean absolute change (SE) from baseline to Week 12 ([1]; 140 μg once daily, n = 44, P < 0.001): −39.2 (3.70) U/L
Body weight, LS mean absolute change (SE) from baseline to Week 12 ([1]; 140 μg once daily, n = 46, P = 0.010): −2.46 (0.38) kg
treatment discontinuation rate due to pruritus ([1]; 140 μg, n=1 (placebo 0%)): 2%
pre-specified endpoints at week 12 ([1]; 200 μg once daily): met
ALT, LS mean absolute change (SE) from baseline to Week 12 ([1]; 200 μg once daily, n = 39, P = 0.013): −23.6 (4.48) U/L
Body weight, LS mean absolute change (SE) from baseline to Week 12 [1, 11]: −3.20 (0.37) kg
GGT, LS mean absolute change (SE) from baseline to Week 12 [1, 11]: −40.9 (3.62) U/L
treatment discontinuation rate due to pruritus ([1]; 200 μg, n=3 (placebo 0%)): 6%
patients with pruritus whose events had mild (Grade 1) severity ([1]; both Tropifexor groups (140 μg, 200 μg)): > 60%
ALT, HFF, and body weight after 12 weeks ([1]; higher doses (140 μg, 200 μg)): robust and dose-dependent decreases
safety and tolerability after 12 weeks ([1]; higher doses (140 μg, 200 μg)): good safety and tolerability
decrease of mean peak plasma concentration (Cmax,ss) [2, 12]: 15%
decrease of total exposure (AUCtau,ss) [2, 12]: 12%
biologic activity (GGT) [3, 13]: clear dose response
target engagement (FGF19) [3, 13]: clear dose response
ALT compared to placebo [3, 14]: reduced across all tropifexor doses
hepatic fat fraction compared to placebo [3, 14]: reduced across all tropifexor doses
tolerability ([3]; up to 90 μg daily): generally well tolerated up to 90 μg daily without safety signals

SMILES: O=C(O)c1ccnc(N2CC(O)(c3ccc(OCc4c(-c5c(Cl)cccc5Cl)noc4C4CC4)cc3Cl)C2)c1 [cilofexor]
LDL uptake by hepatocytes ([4]; FIG. 5): reduce the LDL uptake by hepatocytes in a dose dependent manner; also recorded: decreased LDL uptake

LDL uptake by hepatocytes ([4]; FIG. 5, listed as OCA): decreased LDL uptake
SMILES: CC[C@H]1[C@@H](O)[C@@H]2[C@H](CC[C@]3(C)[C@@H]([C@H](C)CCC(=O)O)CC[C@@H]23)[C@@]2(C)CC[C@@H](O)C[C@@H]12 [obeticholic acid, 6α-ethyl-chenodeoxycholic acid]
LDL uptake by hepatocytes ([4]; FIG. 5): reduce the LDL uptake by hepatocytes in a dose dependent manner
safety on long term administration [5]: associated with pruritus, as well as with lipid abnormalities

pharmacokinetic profile [6]: favorable pharmacokinetic profile
diarrhea events that were mild ([9]; all diarrhea events of the study): 97.4%
increase of mean peak plasma concentration [2, 15]: 8%
increase of total exposure [2, 15]: 12%
SMILES: CCc1ccc([C@@H]2O[C@H](CO)[C@@H](O)[C@H](O)[C@H]2O)cc1Cc1ccc2c(c1)OCCO2 [licogliflozin, (2S,3R,4R,5S,6R)-2-(3-((2,3-dihydrobenzo[b][1,4]dioxin-6-yl)methyl)-4-ethylphenyl)-6-(hydroxymethyl)tetrahydro-2H-pyran-3,4,5-triol]
safety and tolerability [6]: safe and tolerated
placebo-adjusted weight loss ([6]; over 2 weeks): up to 3%
weight loss ([7]; 150 mg daily dose, obese patients, after 12 week treatment): ~6%
safety and tolerability ([7]; 150 mg once daily, twelve weeks, normoglycemic and dysglycemic subjects): generally safe and well tolerated with diarrhea observed as a dose-limiting toxicity
incidence of diarrhea ([8]; 2.5 mg QD for 24 weeks): 18.4%
incidence of diarrhea ([8]; 10 mg QD for 24 weeks): 15.8%
incidence of diarrhea ([8]; 50 mg QD for 24 weeks): 55.3%
incidence of diarrhea ([8]; 150 mg QD for 24 weeks): 68.8%
placebo adjusted reduction from baseline levels of ALT ([9]; 30 mg daily oral, 12 weeks, p=NS): 19%
patients achieving at least 5% absolute reduction in liver fat ([9]; 30 mg): 43.5%
proportion of patients with at least a 30% relative reduction in liver fat content ([9]; 30 mg): 39.5%
patients reporting diarrhea (adverse event) ([9]; 30 mg): 40%
placebo adjusted reduction in HbA1c (absolute change) ([9]; 30 mg, 12 weeks, p=0.001): 0.81%
reduction in GGT ([9]; 30 mg, 12 weeks, p=0.014): 26%
reduction in AST ([9]; 30 mg, 12 weeks, p=0.043): 23%
absolute reduction in liver fat ([9]; 30 mg, 12 weeks, p=NS): 2.71%
relative reduction in liver fat content ([9]; 30 mg, 12 weeks, p=NS): 10%
ALT and liver fat, interim analysis ([9]; 150 mg QD monotherapy in NASH): promising reduction of ALT and liver fat
gastrointestinal events (mainly diarrhea), interim analysis ([9]; 150 mg QD monotherapy in NASH): significant incidence of gastrointestinal events
placebo adjusted reduction from baseline levels of ALT ([9]; 150 mg daily oral, 12 weeks, p=0.036): 27%
patients achieving at least 5% absolute reduction in liver fat ([9]; 150 mg): 63.3%
proportion of patients with at least a 30% relative reduction in liver fat content ([9]; 150 mg): 66.7%
patients reporting diarrhea (adverse event) ([9]; 150 mg): 76.5%
placebo adjusted reduction in HbA1c (absolute change) ([9]; 150 mg, 12 weeks, p=0.0001): 0.96%
reduction in GGT ([9]; 150 mg, 12 weeks, p=0.001): 32%
reduction in AST ([9]; 150 mg, 12 weeks, p=0.004): 30%
absolute reduction in liver fat ([9]; 150 mg, 12 weeks, p=0.01): 4.45%
relative reduction in liver fat content ([9]; 150 mg, 12 weeks, p=0.01): 22%
safety and tolerability ([9]; 12 weeks of treatment, NASH patients): safe and tolerable
placebo adjusted reduction in body weight ([9]; both doses (150 mg and 30 mg), 12 weeks, p=0.0001): ~4%
placebo-subtracted percentage change in body weight from baseline at Week 12 ([10]; 2.5 mg qd): −1.99%
placebo-subtracted percentage change in body weight from baseline at Week 12 ([10]; 10 mg qd): −3.00%
placebo-subtracted percentage change in body weight from baseline at Week 12 ([10]; 25 mg qd): −3.54%
placebo-subtracted percentage change in body weight from baseline at Week 12 ([10]; 50 mg qd): −3.91%
safety ([10]; 2.5, 10, 25 and 50 mg qd over 12 weeks): safe with no ketoacidosis and no new safety signals
body weight, dose dependence ([10]; 2.5, 10, 25 and 50 mg qd, 12 weeks): dose-dependent reduction in body weight
patients achieving reduction of ≥3% in body weight ([10]; 10, 25 and 50 mg qd dose groups (placebo 7.1%; p≤0.002 for all)): ≥ 50%
